How the values were obtained:
[1] = biological target: T1, hyaluronidase from bovine testes type I-S (Bos taurus, UniProt F1MTV1); experiment: turbidimetric hyaluronidase inhibition assay; type: biochemical; conditions: substrate hyaluronic acid 0.03%, with bovine serum albumin 0.1%; per mL of the enzyme solution; read-out: IC50 (μg/mL) ^a
T1 construct: gene SPAM1; native commercial preparation from bovine testes (Sigma-Aldrich, type I-S)
T1 sequence (F1MTV1 36-553): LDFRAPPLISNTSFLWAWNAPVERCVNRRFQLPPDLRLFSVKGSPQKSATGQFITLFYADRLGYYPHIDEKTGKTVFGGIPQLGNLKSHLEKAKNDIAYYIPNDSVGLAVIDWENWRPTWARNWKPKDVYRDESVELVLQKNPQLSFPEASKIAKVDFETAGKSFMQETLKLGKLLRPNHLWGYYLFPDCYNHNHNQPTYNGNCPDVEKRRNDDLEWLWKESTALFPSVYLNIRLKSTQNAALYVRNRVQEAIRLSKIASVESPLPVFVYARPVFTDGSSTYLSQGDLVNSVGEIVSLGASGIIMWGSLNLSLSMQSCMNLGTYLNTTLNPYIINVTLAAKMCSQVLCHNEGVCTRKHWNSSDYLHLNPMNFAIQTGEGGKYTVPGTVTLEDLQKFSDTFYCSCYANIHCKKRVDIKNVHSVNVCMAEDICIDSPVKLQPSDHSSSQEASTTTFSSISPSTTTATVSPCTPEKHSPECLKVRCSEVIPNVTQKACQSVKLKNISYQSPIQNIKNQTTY
Text: turbidimetric hyaluronidase inhibition assay on hyaluronidase from bovine testes type I-S

thrombin = biological target: T2, thrombin (Bos taurus, UniProt P00735); experiment: chromogenic amidolytic assay (S-2238), […] nm; type: biochemical; conditions: read-out: % inhibition at 50 μg/mL
T2 construct: gene F2; Biomed Lublin thrombin is usually of bovine origin, human (P00734) not excluded

| IC50 [1] [µM] | inhibition at 50 µg/mL (thrombin) [%] | Structure (SMILES) |
| --- | --- | --- |
| > 339 | – | O=C(/C=C/c1ccc(O)c(O)c1)O[C@@H]1C[C@](O)(C(=O)O)C[C@@H](O)[C@H]1O [CHA, chlorogenic acid] |
| > 431 | – | O=c1c(O[C@@H]2O[C@H](CO)[C@@H](O)[C@H](O)[C@H]2O)c(-c2ccc(O)c(O)c2)oc2cc(O)cc(O)c12 [IQ, isoquercitrin] |
| > 207 | 27 | Oc1cc(O)c2c(c1)O[C@H](c1ccc(O)c(O)c1)[C@H](O)[C@H]2c1c(O)cc(O)c2c1O[C@H](c1ccc(O)c(O)c1)[C@H](O)C2 [PB2, procyanidin B2] |
| > 319 | – | O=c1c(O[C@@H]2O[C@H](CO)[C@@H](O)[C@H](O)[C@H]2O[C@@H]2O[C@H](CO)[C@@H](O)[C@H](O)[C@H]2O)c(-c2ccc(O)c(O)c2)oc2cc(O)cc(O)c12 [SQ, quercetin 3-O-β-sophoroside] |

— article PMC8698768, “The Effects of Sorbus aucuparia L. Fruit Extracts on Oxidative/Nitrative Modifications of Human Fibrinogen, Impact on Enzymatic Properties of Thrombin, and Hyaluronidase Activity In Vitro” (Antioxidants, 2021)
